Measurements taken from patent US4401660A, “Ester derivatives of 5-O-mycaminosyl tylonolide and method of using same” (Eli Lilly and Company, priority 1981, dated 1983).

Experiments:
Mycoplasma hyorhinis = assay: MIC, broth-dilution microtiter test (Table III); assay type: cell-based; parameters: unit not given here
Procedure: (§1) The MIC's in Table II were determined by standard agar-dilution assays. The MIC's in Table III were obtained using a conventional broth-dilution microtiter test.

[1] = tested on: Pasteurella multocida 68C; assay: MIC, broth-dilution microtiter test (Table III); assay type: cell-based; parameters: unit not given here
Procedure: as §1

[2] = tested on: Pasteurella multocida 22A; assay: MIC, broth-dilution microtiter test (Table III); assay type: cell-based; parameters: unit not given here
Procedure: as §1

[3] = tested on: Pasteurella multocida 40G; assay: MIC, broth-dilution microtiter test (Table III); assay type: cell-based; parameters: unit not given here
Procedure: as §1

[4] = tested on: Pasteurella haemolytica 41D; assay: MIC, broth-dilution microtiter test (Table III); assay type: cell-based; parameters: unit not given here
Procedure: as §1

[5] = tested on: Pasteurella multocida 60A; assay: MIC, broth-dilution microtiter test (Table III); assay type: cell-based; parameters: unit not given here; conditions: avian isolate
Procedure: as §1

Staphylococcus aureus = assay: MIC, broth-dilution microtiter test (Table III); assay type: cell-based; parameters: unit not given here
Procedure: as §1

Streptococcus sp. 80 = assay: MIC, broth-dilution microtiter test (Table III); assay type: cell-based; parameters: unit not given here
Procedure: as §1

[6] = tested on: Pasteurella multocida 17E; assay: MIC, broth-dilution microtiter test (Table III); assay type: cell-based; parameters: unit not given here; conditions: bovine isolate
Procedure: as §1

Mycoplasma gallisepticum = assay: MIC, broth-dilution microtiter test (Table III); assay type: cell-based; parameters: unit not given here
Procedure: as §1

[7] = tested on: Pasteurella haemolytica 22C; assay: MIC, broth-dilution microtiter test (Table III); assay type: cell-based; parameters: unit not given here
Procedure: as §1

[8] = tested on: Pasteurella haemolytica 23C; assay: MIC, broth-dilution microtiter test (Table III); assay type: cell-based; parameters: unit not given here
Procedure: as §1

Pasteurella multocida = assay: Treatment of Pasteurella infections in chicks (Table V); assay type: in vivo, one-day-old chicks; conditions: 30 mg/kg by subcutaneous injection one and four hours post challenge; for mortality at 30 mg/kg: Pasteurella multocida, sc, 4 h, read-out: Deaths in Treated Chicks/Number Treated (converted)
Procedure: Certain OMT ester derivatives are active in vivo against Pasteurella infections. Table V summarizes the results of tests in which the ester derivatives were administered to one-day-old chicks at a dosage level of 30 mg/kg by subcutaneous injection one and four hours post challenge of the chicks with Pasteurella multocida (0.1 ml of a 10^-3 dilution of a 20-hour tryptose broth culture of avian P. multocida given subcutaneously). All nonmedicated infected chicks (ten in each control group) died within 24 hours of Pasteurella challenge.

[9] = tested on: Staphylococcus aureus V41; assay: MIC, standard agar-dilution assay (Table II); assay type: cell-based; parameters: unit not given here; conditions: Staphylococcus aureus V41, penicillin-resistant strain
Procedure: as §1

[10] = tested on: Streptococcus pneumoniae Park I; assay: MIC, standard agar-dilution assay (Table II); assay type: cell-based; parameters: unit not given here
Procedure: as §1

[11] = tested on: Staphylococcus epidermidis EPI2; assay: MIC, standard agar-dilution assay (Table II); assay type: cell-based; parameters: unit not given here
Procedure: as §1

[12] = tested on: Streptococcus Group D X66; assay: MIC, standard agar-dilution assay (Table II); assay type: cell-based; parameters: unit not given here
Procedure: as §1

[13] = tested on: Haemophilus influenzae R252; assay: MIC, standard agar-dilution assay (Table II); assay type: cell-based; parameters: unit not given here; conditions: Haemophilus influenzae R252, ampicillin-resistant strain
Procedure: as §1

[14] = tested on: Haemophilus influenzae Holt; assay: MIC, standard agar-dilution assay (Table II); assay type: cell-based; parameters: unit not given here; conditions: ampicillin-sensitive strain
Procedure: as §1

[15] = tested on: Streptococcus pyogenes C203; assay: MIC, standard agar-dilution assay (Table II); assay type: cell-based; parameters: unit not given here
Procedure: as §1

[16] = tested on: Staphylococcus aureus X1.1; assay: MIC, standard agar-dilution assay (Table II); assay type: cell-based; parameters: unit not given here
Procedure: as §1

[17] = tested on: Staphylococcus aureus S13E; assay: MIC, standard agar-dilution assay (Table II); assay type: cell-based; parameters: unit not given here
Procedure: as §1

[18] = tested on: Staphylococcus epidermidis EPI1; assay: MIC, standard agar-dilution assay (Table II); assay type: cell-based; parameters: unit not given here
Procedure: as §1

[19] = tested on: Streptococcus Group D 9960; assay: MIC, standard agar-dilution assay (Table II); assay type: cell-based; parameters: unit not given here
Procedure: as §1

[20] = tested on: Staphylococcus aureus X400; assay: MIC, standard agar-dilution assay (Table II); assay type: cell-based; parameters: unit not given here; conditions: Staphylococcus aureus X400, methicillin-resistant strain
Procedure: as §1

Mycoplasma synoviae = assay: MIC, broth-dilution microtiter test (Table III); assay type: cell-based; parameters: unit not given here
Procedure: as §1

| SMILES | minimal inhibitory concentration (MIC) (Mycoplasma hyorhinis) | minimal inhibitory concentration (MIC) [1] | minimal inhibitory concentration (MIC) [2] | minimal inhibitory concentration (MIC) [3] | minimal inhibitory concentration (MIC) [4] | minimal inhibitory concentration (MIC) [5] | minimal inhibitory concentration (MIC) (Staphylococcus aureus) | minimal inhibitory concentration (MIC) (Streptococcus sp. 80) | minimal inhibitory concentration (MIC) [6] | minimal inhibitory concentration (MIC) (Mycoplasma gallisepticum) | minimal inhibitory concentration (MIC) [7] | minimal inhibitory concentration (MIC) [8] | minimal inhibitory concentration (MIC) [9] | minimal inhibitory concentration (MIC) [10] | minimal inhibitory concentration (MIC) [11] | minimal inhibitory concentration (MIC) [12] | minimal inhibitory concentration (MIC) [15] | minimal inhibitory concentration (MIC) [16] | minimal inhibitory concentration (MIC) [17] | minimal inhibitory concentration (MIC) [18] | further results |
| --- | --- | --- | --- | --- | --- | --- | --- | --- | --- | --- | --- | --- | --- | --- | --- | --- | --- | --- | --- | --- | --- |
| CCC1OC(=O)CC(O)C(C)C(OC2OC(C)C(O)C(N(C)C)C2O)C(CC=O)CC(C)C(=O)C=CC(C)=CC1COC(=O)CCc1ccccc1 (stereo not shown) [Compound 54] | 0.78 | 0.78 | 6.25 | 3.12 | 3.12 | 1.56 | 0.195 | 0.195 | 0.78 | 0.097 | 3.12 | 3.12 | 0.25 | 0.015 | 0.25 | 0.125 | 0.06 | 0.125 | 0.125 | 0.125 | Deaths in Treated Chicks/Number Treated (Pasteurella multocida): 0/10; minimal inhibitory concentration (MIC) [13]: 0.25; minimal inhibitory concentration (MIC) [14]: 0.25; minimal inhibitory concentration (MIC) [19]: 0.125; minimal inhibitory concentration (MIC) [20]: 0.25 |
| CCC1OC(=O)CC(O)C(C)C(OC2OC(C)C(O)C(N(C)C)C2O)C(CC=O)CC(C)C(=O)C=CC(C)=CC1COC(=O)Cc1ccc(Cl)cc1 (stereo not shown) [Compound 32, 23-O-(p-Chlorophenylacetyl)-OMT] | 3.12 | 0.39 | 0.78 | 1.56 | 3.12 | 0.78 | 0.097 | 0.097 | 1.56 | < 0.05 | 1.56 | 3.12 | 0.25 | 0.03 | 0.25 | 0.125 | 0.06 | 0.125 | 0.125 | 0.125 | minimal inhibitory concentration (MIC) (Mycoplasma synoviae): < 0.05; mortality at 30 mg/kg (Pasteurella multocida): 20%; minimal inhibitory concentration (MIC) [19]: 0.125; minimal inhibitory concentration (MIC) [20]: 0.25 |
| CCC1OC(=O)CC(O)C(C)C(OC2OC(C)C(OC(C)=O)C(N(C)C)C2OC(C)=O)C(CC=O)CC(C)C(=O)C=CC(C)=CC1COC(=O)[C@H](O)c1ccccc1 (stereo partly drawn) [Compound 41, 2',4'-Di-O-acetyl-23-O-(D-mandeloyl)-OMT] | 12.5 | 3.12 | 3.12 | 3.12 | 6.25 | 3.12 | 0.78 | 0.195 | 3.12 | 0.195 | 6.25 | 6.25 | 0.25 | 0.03 | 0.25 | 0.125 | 0.06 | 0.125 | 0.25 | 0.25 | minimal inhibitory concentration (MIC) (Mycoplasma synoviae): 0.39; mortality at 30 mg/kg (Pasteurella multocida): 100%; minimal inhibitory concentration (MIC) [19]: 0.25; minimal inhibitory concentration (MIC) [20]: 0.5 |
| CCC1OC(=O)CC(O)C(C)C(OC2OC(C)C(OC(C)=O)C(N(C)C)C2OC(C)=O)C(CC=O)CC(C)C(=O)C=CC(C)=CC1COC(=O)[C@H](NC(=O)OC(C)(C)C)c1ccccc1 (stereo partly shown) [Compound 39, 2',4'-Di-O-acetyl-23-O-(N-t-BOC-phenylglycyl)-OMT] | 1.56 | 12.5 | 25 | 6.25 | 12.5 | 12.5 | 1.56 | 0.195 | 6.25 | < 0.05 | 12.5 | 12.5 | 1 | 0.03 | 1 | 0.5 | 0.125 | 0.5 | 0.5 | 0.5 | mortality at 30 mg/kg (Pasteurella multocida): 100%; minimal inhibitory concentration (MIC) [13]: 2; minimal inhibitory concentration (MIC) [14]: 2; minimal inhibitory concentration (MIC) [19]: 0.5; minimal inhibitory concentration (MIC) [20]: 1 |
| CCC1OC(=O)CC(O)C(C)C(OC2OC(C)C(O)C(N(C)C)C2OC(C)=O)C(CC=O)CC(C)C(=O)C=CC(C)=CC1COC(=O)CCc1ccccc1 (stereo not shown) [Compound 30] | 0.195 | 0.78 | 1.56 | 0.78 | 3.12 | 1.56 | 0.195 | < 0.05 | 1.56 | < 0.05 | 3.12 | 3.12 | 0.25 | 0.015 | 0.25 | 0.125 | 0.06 | 0.125 | 0.25 | 0.25 | Deaths in Treated Chicks/Number Treated (Pasteurella multocida): 6/10; minimal inhibitory concentration (MIC) [13]: 0.5; minimal inhibitory concentration (MIC) [14]: 0.5; minimal inhibitory concentration (MIC) [19]: 0.125; minimal inhibitory concentration (MIC) [20]: 0.25 |
| CCC1OC(=O)CC(O)C(C)C(OC2OC(C)C(OC(C)=O)C(N(C)C)C2OC(C)=O)C(CC=O)CC(C)C(=O)C=CC(C)=CC1COC(=O)COc1ccccc1 (stereo not shown) [Compound 34, 2',4'-Di-O-acetyl-23-O-phenoxyacetyl-OMT] | 3.12 | 1.56 | 3.12 | 1.56 | 3.12 | 1.56 | 0.097 | < 0.05 | 1.56 | < 0.05 | 3.12 | 3.12 | 0.25 | 0.015 | 0.5 | 0.25 | 0.06 | 0.25 | 0.25 | 0.25 | mortality at 30 mg/kg (Pasteurella multocida): 90%; minimal inhibitory concentration (MIC) [13]: 1; minimal inhibitory concentration (MIC) [14]: 1; minimal inhibitory concentration (MIC) [19]: 0.25; minimal inhibitory concentration (MIC) [20]: 0.25 |
